# In patent US4562176A, “Method and composition for treating cancer” (priority 1985, dated 1985):
# Numbered stars: 1 amine (or outer) side, 2 acyl side, 3 side chain; on linkers, the order of the positions; unused ones are H or OH. Bridge positions count the residues as written; N and C are the ends. Square brackets hold non-standard residues; d marks the D form. Peptide text beside a SMILES is read from it. I, II: the chains in the order shown. Actinocin(9to1) = Cc1c2oc3c(C)ccc(C(=O)[*:1])c3nc-2c(C(=O)[*:2])c(N)c1=O; NMeV = CN[C@H](C(=O)O)C(C)C; Sar = CNCC(=O)O
# Assays:
# [1] = Solubility in distilled water
# Experimental: SOLUBILITY OF ACTINOMYCIN D AND ANALOGUES 2b, 3b AND 4b IN DISTILLED WATER AT 20° C. AND 4° C.
# [2] = tested on: human lymphoblastic leukemia cells (CCRF-CEM); assay: In vitro growth inhibition of CCRF-CEM cells; assay type: cell-based; conditions: for In Vitro (CCRF-CEM) ID50: cells in log-phase growth, suspension culture, final growth medium 5% Me2SO
# Experimental: ^b Human lymphoblastic luekemia cells in logphase growth and in a
# suspension culture. Compounds were dissolved in Me2 SO medium, final
# growth medium contained 5% Me2 SO.
# In vitro growth inhibition of the analogues were assayed against human lymphoblastic leukemia cells (CCRF-CEM) in log phase. The most cyctoxic are AMD-OZN analogues 2b and 2g and AMD-OZL analogues 4a-4c. However, compared to AMD, they are several fold less cytotoxic to CEM-cells in vitro.
# purified calfthymus DNA = assay: Thermal denaturation of DNA (ΔTm); assay type: binding, calf; conditions: 0.01 M phosphate, EDTA, buffer pH 7.0
# Experimental: ^a ΔTm = Tm of DNAdrug complex minut Tm of
# purified calfthymus DNA.
# (§1) Medium: 0.01 M phosphate containing 10^-4 EDTA, buffer pH 7.0.
# Melting points were determined on a Thomas-Hoover melting point apparatus at a heating rate of 2° C./min. Dry column chromatography was accomplished with silicic acid powder (Bio-Sil A 100-200 mesh, Bio-Rad Laboratories, Inc.) or acid alumina (Woelm grade 1). Thin layer chromatography was performed on silica gel plates (Brinkmann Instrument, Inc.). For oxazinone analogues (2b), the silica gel plates were exposed to the vapor of conc. HCL in an air-tight container for 20 min before application of the compound for TLC. This procedure helped to prevent the streaking of the compounds in the chromatogram. Solvent systems were (A) EtOAc-acetone (2:1); (B) dry t-BuOH-C6 H6 --C6 H5 N (85:12.5:2.5); (C) Cifferri, the organic phase of the mixture EtOAc-MeOH-H2 O (20:L:20). High performance-liquid chromatography was carried out on a Varian Model 5020 gradient liquid chromatograph equipped with CD-111L chromatography data system and fitted with Varian reversed-phase C18 column with isocratic solvent systems, CH3 CN-5 mM NH4 OAc buffer, pH 6.4 (68:32), flow rate 15 mL/mn, with UV-visible variable and fixed wavelength dual detectors at 254,440, 500 and 252 nm. Spectra were determined on the following instruments: IR spectra were obtained on the Perkin-Elmer Model 237 Infra Cord with KBr micropellets or in CHCl3 solutions; UV-visible spectra were obtained on a Gilford 250 spectrophotometer, which, with the addition of a baseline reference compensator (Analog Multiplexer 5053) and thermoprogrammer, auto four cell programmer and thermoelectric cell holder 2577, were used to obtain thermal denaturation curves; specific rotational values were determined in CHCl3 solutions using a Cary 60 spectropolarimeter; NMR spectra were obtained in a JOEL FQ -90 MHz spectrometer equipped with Fourier transform. All elemental analyses were within +0.4%, unless it is specified otherwise.
# DNA-DRUG BINDING BY DIFFERENCE SPECTRAL AND THERMAL DEVATURATION OF DNA (ΔTm) TECHNIQUES […]
# DNA = assay: DNA-drug binding by difference spectral (absorption and CD) techniques; conditions: for Diff. CD Spectra -Δ[θ]max (nm): DNA-bound vs combined individual spectra; for Diff. CD Spectra -Δ[θ]max (nm) / Diff. Absorption Spectra -Δεmax (nm): 340-600 nm, wavelength in brackets, phosphate buffer pH 7.0; for Diff. Absorption Spectra -Δεmax (nm): free minus DNA-bound spectrum
# Source text: ^b Diff. Absorption Spectra is the calculated absorption spectra
# obtained by subtracting the spectrum of the DNAbound analogue from the
# spectrum of the free analogue, measured at 340-600 nm.
# ^c Diff. CD Spectra is the calculated CD Spectra obtained as the
# difference of the DNAbound from the combined individual spectra of
# analogues and DNA at 340-600 nm.
# as §1
# DNA-DRUG BINDING BY DIFFERENCE SPECTRAL AND THERMAL DEVATURATION OF DNA (ΔTm) TECHNIQUES
# These experiments were performed according to the methods described by Sengupta et al., Cancer Chemother. Rep., 1974, 58, p. 35, Sengupta et al, J. Med. Chem., 1981, 24, p. 1052 and Sengupta et al, 1983, 26, p. 448, Sengupta et al, 1978, Biochem. Biophys Acta, 521, p. 89.
# [3] = tested on: P388 lymphocytic leukemia; assay: In vivo P388 assay; set-up: species or system mice; conditions: ip days 1,5,9; for % ILS (percent increase in life span) / MST (median survival time) / Cure (over 60 day survivors): at optimum dose; for % ILS (percent increase in life span) / MST (median survival time): CDF1 male mice; for MST (median survival time): control MST 11.0 days; for Cure (over 60 day survivors): group of 7 CDF1 male mice, average of 2 experiments
# Experimental: ^c 10^6 P388 cells implanted intraperitoneally on day 0 into a
# group of 7 CDF1 male mice. Drugs were administered, also ip, in 10%
# Me2 SO--saline on days 1,5,9. Test solutions were kept at 0-4.degree
# C., protected from light.
# These analogues were tested for antitumor activity against P388 lymphocytic leukemia in male CDF1 hybrid mice (Table 6). The tumor was implanted intraperitoneally (ip) with 10^6 cells. The drugs were administered once daily on days 1, 5, 9 beginning 1 day after implantation.
# mouse leukemia cells = conditions: known before this invention; cited from earlier work
Structure (SMILES),solubility in distilled water ([1]; 4° C.),solubility in distilled water ([1]; 20° C.),In Vitro (CCRF-CEM) ID50 [2],ΔTm (Tm of DNA-drug complex minus Tm of DNA) (purified calfthymus DNA),Diff. CD Spectra -Δ[θ]max (nm) (DNA),DNA binding (in words) (DNA; difference spectral or ΔTm techniques),Diff. Absorption Spectra -Δεmax (nm) (DNA),% ILS (percent increase in life span) [3],MST (median survival time) [3],Cure (over 60 day survivors) [3],cytotoxicity to CEM cells (in words) ([2]; CCRF-CEM in log phase),activity against human cancer cells (in words) ([2]; human cancer cells),activity against mouse leukemia cells (mouse leukemia cells),antitumor activity against P388 (in words) ([3]; CDF1 mice)
"Cc1c2oc3c(C)ccc(C(=O)N[C@@H]4C(=O)N[C@H](C(C)C)C(=O)N5CCC[C@H]5C(=O)N(C)CC(=O)N(C)[C@@H](C(C)C)C(=O)O[C@@H]4C)c3nc-2c(C(=O)N[C@@H]2C(=O)N[C@H](C(C)C)C(=O)N3CCC[C@H]3C(=O)N(C)CC(=O)N(C)[C@@H](C(C)C)C(=O)O[C@@H]2C)c(N)c1=O [Compound 1a, Actinomycin D, reference compound] (I: T[dV]P[Sar][NMeV] / II: T[dV]P[Sar][NMeV]; ester I:1-I:C, II:1-II:C; linker I:N-II:N via Actinocin(9to1))",20.5 mg/mL,0.9 mg/mL,0.04 µg/mL,7.1 ± 0.15 °C,"40,000(390)",binds to DNA strongly by intercalation,"8,240(425)",136%,26 days,1/7,–,–,–,–
"Cc1c2oc3c(C)c(O)cc(C(=O)N[C@@H]4C(=O)N[C@H](C(C)C)C(=O)N5CCC[C@H]5C(=O)N(C)CC(=O)N(C)[C@@H](C(C)C)C(=O)O[C@@H]4C)c3nc-2c(C(=O)N[C@@H]2C(=O)N[C@H](C(C)C)C(=O)N3CCC[C@H]3C(=O)N(C)CC(=O)N(C)[C@@H](C(C)C)C(=O)O[C@@H]2C)c(N)c1=O [Compound 1b, 7-HYDROXY ACTINOMYCIN D]",–,–,–,6.7 ± 0.15 °C,"31,000(485)",–,"9,380(550)",–,–,–,–,–,–,–
Cc1ccc(C(=O)N[C@@H]2C(=O)N[C@H](C(C)C)C(=O)N3CCC[C@H]3C(=O)N(C)CC(=O)N(C)[C@@H](C(C)C)C(=O)O[C@@H]2C)c2c1Oc1c(c(C(=O)N[C@@H]3C(=O)N[C@H](C(C)C)C(=O)N4CCC[C@H]4C(=O)N(C)CC(=O)N(C)[C@@H](C(C)C)C(=O)O[C@@H]3C)c3nc(-c4ccccc4)c(=O)oc3c1C)N2 [Compound 2b],–,–,0.44 µg/mL,–,–,–,–,309%,45 days,2/7,most cyctoxic,highest human antitumor effects,active,most active
Cc1nc2c(C(=O)N[C@@H]3C(=O)N[C@H](C(C)C)C(=O)N4CCC[C@H]4C(=O)N(C)CC(=O)N(C)[C@@H](C(C)C)C(=O)O[C@@H]3C)c3c(c(C)c2o1)Oc1c(C)ccc(C(=O)N[C@@H]2C(=O)N[C@H](C(C)C)C(=O)N4CCC[C@H]4C(=O)N(C)CC(=O)N(C)[C@@H](C(C)C)C(=O)O[C@@H]2C)c1N3 [Compound 3a],–,–,2.9 µg/mL,0.0 ± 0.30 °C,nil,–,nil,91%,21 days,0/7,–,–,–,–
